According to US9481683B2, “1,3-benzothiazinone sulfoxide and sulfone compounds” (UNIVERSITY OF NOTRE DAME DU LAC, priority 2014, dated 2016):
Converted amounts (≈) assume the structure as drawn. Read-outs that look alike come from different tables or passages of the source.

What was measured:
M. smegmatis (MC2155) = assay: Broth microdilution MIC, M. smegmatis; format: cell-based, Mycobacterium smegmatis; settings: 37° C., 18-20 h, average of three measurements
A. baumanii ATCC17961 = assay: Broth microdilution MIC, A. baumanii; format: cell-based, Acinetobacter baumanii; settings: 37° C., 18-20 h, average of three measurements
M. luteus ATCC10240 = assay: Broth microdilution MIC, M. luteus; format: cell-based; settings: 37° C., 18-20 h, average of three measurements
S. aureus SG511 = assay: Broth microdilution MIC, S. aureus; format: cell-based, Staphylococcus aureus; settings: 37° C., 18-20 h, average of three measurements
M. vaccae IMET10670 = assay: Broth microdilution MIC, M. vaccae; format: cell-based, Mycobacterium vaccae; settings: 37° C., 18-20 h, average of three measurements
P. aeruginosa KW799/61 = assay: Broth microdilution MIC, P. aeruginosa; format: cell-based, Pseudomonas aeruginosa; settings: 37° C., 18-20 h, average of three measurements
M. aurum (SB66) = assay: Broth microdilution MIC, M. aurum; format: cell-based, Mycobacterium aurum; settings: 37° C., 18-20 h, average of three measurements, in µM
PC3 (prostate cancer) = assay: Cytotoxicity, crystal violet biomass reduction assay, PC3; format: cell-based; settings: 72 h
Description: (§1) Cytotoxicity Assays: against PC3, HeLa and MCF-7 cell lines.
(§2) In vitro activities against cells were determined with a crystal violet biomass reduction assay. Cells were grown in media supplemented with fetal bovin serum and penicillin/streptromycin antibiotic. 100 μL of cell inoculums was added to each well. After cell inoculation, the 96 well micro-titer plates were incubated at 37° C. and 5% CO2 with 95% humidity for 24 h prior to addition of compounds. A stock solution of each compound was made in DMSO and then diluted with media to give a 40 μM solution. 100 μL of DMSO/media solutions of compounds were added in replicates of 3. 100 μL solution was added to the first set of wells. Two-fold serial dilutions were made down each row of the micro-titer plate. The cells were incubated in a 37° C., 5% CO2 and 95% humidity for 72 h. The media was removed and the cells were fixed with glutaraldehyde, rinsed, stained with crystal violet, rinsed and air dried. The stain was eluted with a solution of Triton-X-100 and optical density was measured at 595 nm. Trichostatin A was used as a positive control for all the cell lines tested.

Mtb H37Rv (ATCC#27294) = assay: Microplate Alamar Blue assay (MABA), replicating TB; format: cell-based, Mycobacterium tuberculosis; settings: for MIC: Mycobacterium tuberculosis, H37Rv, reduction in fluorescence of ≧90%
M. kansasii (ATCC:12478) = assay: NTM MIC assay, M. kansasii; format: cell-based, Mycobacterium kansasii; settings: for In vitro activity (MIC) M. kansasii: Middlebrook 7H9 with OADC, 37° C., 6 days
MCF-7 (breast cancer) = assay: Cytotoxicity, crystal violet biomass reduction assay, MCF-7; format: cell-based; settings: 72 h
Description: as §1, §2

M. marinum (ATCC: 927) = assay: NTM MIC assay, M. marinum; format: cell-based, Mycobacterium marinum; settings: for In vitro activity (MIC) M. marinum: Middlebrook 7H9 with OADC, 30° C., 5 days
HeLa = assay: Cytotoxicity, crystal violet biomass reduction assay, HeLa; format: cell-based; settings: 72 h
Description: as §1, §2

[1] = tested on: M. bovis BCG (ATCC: 35734); format: cell-based, Mycobacterium bovis; settings: for In vitro activity (MIC) M. bovis: M. bovis BCG, 7H12, 37° C., 6 days
[2] = 7H12 medium, read-out: MABA:MIC 7H12
[3] = glycerol-alanine-salts medium, read-out: MABA:MIC GAS

**Q.** How did the In vitro activity (MIC) M. smegmatis (M. smegmatis (MC2155)) turn out when O=C(O)c1cn(C2CC2)c2cc(N3CCNCC3)c(F)cc2c1=O [Ciprofloxacin, reference compound] was run?
**A.** 0.32 µM

**Q.** And the In vitro activity (MIC) A. baumanii ATCC17961 (A. baumanii ATCC17961)?
**A.** 0.156 µM

**Q.** What about the In vitro activity (MIC) M. luteus ATCC10240 (M. luteus ATCC10240) of the same compound?
**A.** 1.25 µM

**Q.** What about the In vitro activity (MIC) S. aureus SG511 (S. aureus SG511) of the same compound?
**A.** 0.32 µM

**Q.** And the In vitro activity (MIC) M. vaccae IMET10670 (M. vaccae IMET10670)?
**A.** 0.32 µM

**Q.** What about the “In vitro activity (MIC) P. aeruginosa KW799/61” value (P. aeruginosa KW799/61) of the same compound?
**A.** 0.156

**Q.** What about the “In vitro activity (MIC) M. aurum” value (M. aurum (SB66)) of the same compound?
**A.** 0.020

**Q.** What does the source list for C[C@H]1COC2(CCN(c3nc(=O)c4cc(C(F)(F)F)cc([N+](=O)[O-])c4s3)CC2)O1 [Compound 1, BTZ043, reference compound]?
**A.** In vitro activity (MIC) M. smegmatis (M. smegmatis (MC2155)): 0.002 µM; In vitro activity (MIC) A. baumanii ATCC17961 (A. baumanii ATCC17961): > 200 µM; Cytotoxicity PC3 (PC3 (prostate cancer)): >20; In vitro activity (MIC) M. luteus ATCC10240 (M. luteus ATCC10240): > 200 µM; Activity against M. tuberculosis (in words) (Mtb H37Rv (ATCC#27294)): impressive activity; MIC (Mtb H37Rv (ATCC#27294); [2]): < 0.02 µM; MIC (Mtb H37Rv (ATCC#27294); [3]): < 0.02 µM; In vitro activity (MIC) M. kansasii (M. kansasii (ATCC:12478)): < 0.02 µM; In vitro activity (MIC) S. aureus SG511 (S. aureus SG511): > 0.2 µM; In vitro activity (MIC) M. vaccae IMET10670 (M. vaccae IMET10670): 0.002 µM; Cytotoxicity MCF-7 (MCF-7 (breast cancer)): >20; In vitro activity (MIC) P. aeruginosa KW799/61 (P. aeruginosa KW799/61): >200; In vitro activity (MIC) M. aurum (M. aurum (SB66)): >200; In vitro activity (MIC) M. marinum (M. marinum (ATCC: 927)): 0.037 µM; Cytotoxicity HeLa (HeLa): >20; Activity against M. bovis (in words) [1]: impressive activity; In vitro activity (MIC) M. bovis [1]: < 0.02 µM

**Q.** What does the source list for C[C@H]1COC2(CCN(c3nc(=O)c4cc(C(F)(F)F)cc([N+](=O)[O-])c4[s+]3[O-])CC2)O1 (stereo partly drawn) [Compound 5, 2-((S)-2-Methyl-1,4-dioxa-8-azaspiro[4.5]decan-8-yl)-8-nitro-6-(trifluoromethyl)-4H-benzo[e][1,3]thiazin-4-one 1-oxide]?
**A.** In vitro activity (MIC) M. smegmatis (M. smegmatis (MC2155)): < 0.013 µM; In vitro activity (MIC) A. baumanii ATCC17961 (A. baumanii ATCC17961): > 200 µM; Cytotoxicity PC3 (PC3 (prostate cancer)): 15; In vitro activity (MIC) M. luteus ATCC10240 (M. luteus ATCC10240): 50 µM; Activity against M. tuberculosis (in words) (Mtb H37Rv (ATCC#27294)): impressive activity; MIC (Mtb H37Rv (ATCC#27294); [2]): 0.06 µM (≈ 0.0268 µg/mL); MIC (Mtb H37Rv (ATCC#27294); [3]): < 0.02 µM; Activity against M. kansasii (in words) (M. kansasii (ATCC:12478)): demonstrated activity; In vitro activity (MIC) M. kansasii (M. kansasii (ATCC:12478)): 0.3 µM; In vitro activity (MIC) S. aureus SG511 (S. aureus SG511): 12.5 µM; In vitro activity (MIC) M. vaccae IMET10670 (M. vaccae IMET10670): < 0.013 µM; Cytotoxicity MCF-7 (MCF-7 (breast cancer)): >20; In vitro activity (MIC) P. aeruginosa KW799/61 (P. aeruginosa KW799/61): >200; In vitro activity (MIC) M. aurum (M. aurum (SB66)): 3.13-12.5; Activity against M. marinum (in words) (M. marinum (ATCC: 927)): demonstrated activity; In vitro activity (MIC) M. marinum (M. marinum (ATCC: 927)): 0.19 µM; Cytotoxicity HeLa (HeLa): >20; Activity against M. bovis (in words) [1]: impressive activity; In vitro activity (MIC) M. bovis [1]: 0.21 µM

**Q.** Which results are given for C[C@H]1COC2(CCN(C3=NC(=O)c4cc(C(F)(F)F)cc([N+](=O)[O-])c4S3(=O)=O)CC2)O1 [Compound 6, (S)-2-(2-Methyl-1,4-dioxa-8-azaspiro[4.5]decan-8-yl)-8-nitro-6-(trifluoromethyl)-4H-benzo[e][1,3]thiazin-4-one 1,1-dioxide]?
**A.** In vitro activity (MIC) M. smegmatis (M. smegmatis (MC2155)): > 0.5 µM; In vitro activity (MIC) A. baumanii ATCC17961 (A. baumanii ATCC17961): > 200 µM; Cytotoxicity PC3 (PC3 (prostate cancer)): >20; In vitro activity (MIC) M. luteus ATCC10240 (M. luteus ATCC10240): > 200 µM; Activity against M. tuberculosis (in words) (Mtb H37Rv (ATCC#27294)): only weakly active; MIC (Mtb H37Rv (ATCC#27294); [2]): 1.46 µM (≈ 0.677 µg/mL); MIC (Mtb H37Rv (ATCC#27294); [3]): 0.75 µM; Activity against M. kansasii (in words) (M. kansasii (ATCC:12478)): either inactive or weakly inactive; In vitro activity (MIC) S. aureus SG511 (S. aureus SG511): 0.2 µM; In vitro activity (MIC) M. vaccae IMET10670 (M. vaccae IMET10670): < 0.013 µM; Cytotoxicity MCF-7 (MCF-7 (breast cancer)): >20; In vitro activity (MIC) P. aeruginosa KW799/61 (P. aeruginosa KW799/61): >200; In vitro activity (MIC) M. aurum (M. aurum (SB66)): >200; Activity against M. marinum (in words) (M. marinum (ATCC: 927)): either inactive or weakly inactive; Cytotoxicity HeLa (HeLa): >20; Activity against M. bovis (in words) [1]: only weakly active

**Q.** What does the source list for NNC(=O)c1ccncc1 [INH]?
**A.** MIC (Mtb H37Rv (ATCC#27294); [2]): 0.1 µM (≈ 0.0137 µg/mL); MIC (Mtb H37Rv (ATCC#27294); [3]): 0.03 µM; In vitro activity (MIC) M. kansasii (M. kansasii (ATCC:12478)): 3.86 µM; In vitro activity (MIC) M. marinum (M. marinum (ATCC: 927)): > 8 µM; In vitro activity (MIC) M. bovis [1]: 0.5 µM

**Q.** Which MIC (Mtb H37Rv (ATCC#27294); [2]) does the source give for CO[C@H]1/C=C/O[C@@]2(C)Oc3c(C)c(O)c4c(O)c(c(/C=N/N5CCN(C)CC5)c(O)c4c3C2=O)NC(=O)/C(C)=C\C=C\[C@H](C)[C@H](O)[C@@H](C)[C@@H](O)[C@@H](C)[C@H](OC(C)=O)[C@@H]1C [Rifampin] here?
**A.** 0.05 µM (≈ 0.0411 µg/mL)

**Q.** What about the MIC (Mtb H37Rv (ATCC#27294); [3]) of the same compound?
**A.** 0.04 µM

**Q.** What about the In vitro activity (MIC) M. kansasii (M. kansasii (ATCC:12478)) of the same compound?
**A.** 0.1 µM

**Q.** What about the In vitro activity (MIC) M. marinum (M. marinum (ATCC: 927)) of the same compound?
**A.** 0.23 µM

**Q.** And the In vitro activity (MIC) M. bovis [1]?
**A.** 0.02 µM
